Reference: patent US6627623B2, “Inducing cell apoptosis and treating cancer using 1-O-acetylbritannilactone or 1,6-O,O-diacetylbritannilactone” (priority 2001, dated 2003)
“And” between values parts separate entries of the source, which are not always exact repeats. Equal entries are not always repeated.

How the values were obtained:
[1] = test system: PARP; assay: PARP cleavage (apoptosis indicator) by Western blot in PA-1 cells; format: cell-based; conditions: 24 hours
Description: Using cleavage of PARP as an indicator of apoptosis, the compositions of the present invention were tested in PA-1 ovary cells. PARP is a 116 kD nuclear poly (ADP-ribose)polymerase that appears to be involved in DNA-repair, predominantly in response to environmental stress (Satoh, M. S. and T. Lindahl. 1992. Nature 356:356-358). PARP is important for cells to maintain their viability. Cleavage of PARP facilitates cellular disassembly and serves as a marker of cells undergoing apoptosis (Oliver, F. J. et al. 1998. J. Biol. Chem. 273:33533-33539). This protein can be cleaved by many ICE caspases to form a 85 kD protein in cells undergoing apoptosis. PA-1 cells were treated with OODABL for 24 hours. Cells were lysed and PARP cleavage was measured by Western Blot using a monoclonal antibody to PARP (Pharmingen, Inc., San Diego, Calif.). OABL induced PARP cleavage at doses of 10 and 20 μM, while OODABL induced PARP cleavage at a dose of 5 μM.

[2] = test system: Bcl-2; assay: Bcl-2 phosphorylation in OVCAR ovarian cancer cells; format: cell-based
Description: (§1) Experiments were performed to determine the activity of two of the sesquiterpene compounds isolated from Inula britannica, OABL and OODABL, as cancer preventative agents. Using a Western blot technique, the ability of these compounds to phosphorylate Bcl-2 in cancer cells was examined. […] OODABL induced Bcl-2 phosphorylation at lower effective doses, 2.5 and 5 μM.
(§2) In two ovarian cancer cell lines, OVCAR and PA-1, similar results were seen. In OVCAR cells, OODABL induced Bcl-2 phosphorylation at a dose of 5 μM, while OABL induced Bcl-2 phosphorylation at a dose of 10 μM. In PA-1 cells, OODABL induced Bcl-2 phosphorylation at a dose of 5 μM, while OABL induced Bcl-2 phosphorylation at a dose of 10 μM.

[3] = test system: Bcl-2; assay: Bcl-2 phosphorylation by Western blot in MCF-7 cells; format: cell-based; conditions: MCF-7 breast cancer cells
Description: as §1

[4] = test system: PA-1 cells; assay: MTT cell viability assay, PA-1; format: cell-based
Description: (§3) Cell viability was then assessed in a microculture tetrazolium/formazan assay (MTT; Scudiero, D. A. et al. 1988. Cancer Res. 48:4827-4833) using a variety of cell lines. Absorbance was measured at 550 nm and cell viability was expressed as the percentage of drug treated cells relative to that of controls. The IC50 was then defined as the concentration of drug that produced a 50% decrease in cell viability relative to controls. OODABL was first tested in a variety of cell lines. […] In NIH 3T3 (normal mouse fibroblasts) cells treated with various concentrations of OODABL (1, 10, 20 and 50 μM OODABL), cell viability was decreased in a dose-dependent manner with an IC50 of 50 μM.
(§4) OABL was then tested in some of these same cell lines. In MCF-7 cells, OABL was tested at doses of 0.3 nm, 3 nm, 30 nm, 300 nm, 3 μM, and 30 μM.

[5] = test system: Bcl-2; assay: Bcl-2 phosphorylation in PA-1 ovarian cancer cells; format: cell-based; conditions: PA-1 cells
Description: as §1, §2

[6] = test system: Bcl-2; assay: Bcl-2 phosphorylation in a prostate cancer cell line; format: cell-based
Description: as §1
In a prostate cancer cell line, these compounds were also able to induce Bcl-2 phosphorylation. OODABL induced Bcl-2 phosphorylation at a dose of 5 μM while OABL induced Bcl-2 phosphorylation at a dose of 10 μM.

[7] = test system: DU-145 cells; assay: MTT cell viability assay, DU-145; format: cell-based
Description: as §3, §4

[8] = test system: HL-60 cells; assay: TUNEL assay (APO-BRDU flow cytometry), late apoptosis; format: cell-based; conditions: 12 hours
Description: In a TUNEL assay, the effect of OODABL on late apoptosis was examined. HL-60 cells lines were subjected to flow cytometry analysis using APO-BRDU. Apoptosis was detected by incorporation of Br-dUTP using a fluorescein labeled anti-BrdU monoclonal antibody after treatment with a vehicle control, 1 μM camptothecin or 20 μM OODABL for 12 hours.

[9] = test system: PC-3 prostate cells; assay: Clonogenic assay, PC-3; format: cell-based; conditions: PC-3 cells, 15 days; read-out: IC50 clonogenic assay (colonies counted)
Description: (§5) Cell cytotoxicity was also assessed by a clonogenic assay. MCF-7 breast cells were treated with various concentrations of OODABL (625 nm, 1.25, 2.5, 5 and 10 μM) for 15 days and cells were then stained with methylene blue and colonies counted. […] PC-3 prostate cells were treated with various concentrations of OODABL (20 and 200 nm, and 2 and 20 μM) for 15 days and cells were then stained with methylene blue and colonies counted. The IC50 was in the range of 200 nm OODABL. RKO cells were treated with various concentrations of OODABL (20 and 200 nm, and 2 and 20 μM) for 15 days and cells were then stained with methylene blue and colonies counted. The IC50 was in the range of 20 μM OODABL. Baby rat kidney cells were transformed with E1A and transfected with the Bcl-2 gene to form BRK-4B-Bcl-2 cells. These cells were treated with various concentrations of OODABL (20 and 200 nm, and 2, 10 and 20 μM) for 15 days and cells were then stained with methylene blue and colonies counted. The IC50 was in the range of 200 nM OODABL. Baby rat kidney cells were transformed with E1A and transfected with Bcl-2 gene in which phosphorylation sites were mutated to form phosphomutant BRK-4B-Bcl-2 cells. These cells were treated with various concentrations of OODABL (20 and 200 nm, and 2 and 20 μM) for 15 days and cells were then stained with methylene blue and colonies counted. […]

[10] = test system: Bcl-2; assay: Bcl-2 phosphorylation by Western blot in non-mutated BRK-4B-Bcl-2 cells; format: cell-based, rat; conditions: 12 hours
Description: (§6) The level of Bcl-2 phosphorylation was then assessed in the non-mutated and mutated BRK-4B-Bcl-2 cells using a Western blot assay. Cells were initially treated for 12 hours with the test compound, OODABL (at concentrations of 10, 20, 30, 40, or 60 μM). Taxol was used as a positive control at a concentration of 5 μM. Cells were then lysed in ice cold radio-immune precipitation buffer with inhibitors. Equivalent amounts of proteins were electrophoresed by 12% dodecyl sulfate-polyacrylamide gel electrophoresis and transferred to nitrocellulose. Bcl-2 and phosphorylated Bcl-2 proteins were detected using a monoclonal Bcl-2 primary antibody and a secondary goat anti-mouse horseradish peroxidase conjugated antibody followed by enhanced chemiluminescence detection.

[11] = test system: RKO cells; assay: Clonogenic assay, RKO; format: cell-based; conditions: 15 days, read-out: IC50 clonogenic assay (colonies counted)
Description: as §5

[12] = test system: microtubules (tubulin) in MCF-7 cells; assay: Microtubule indirect immunofluorescence in MCF-7 cells; format: cell-based; conditions: 12 hours
Description: The effect of OODABL on microtubules was examined by indirect immunofluorescence of MCF-7 cells using an antibody to tubulin after 12 hours treatment with either a vehicle control, 10 μM paclitaxel (positive control), or 20 μM OODABL.

[13] = test system: BRK-4B-Bcl-2 cells; assay: Clonogenic assay, BRK-4B-Bcl-2; format: cell-based, rat; conditions: 15 days, read-out: IC50 clonogenic assay (colonies counted)
Description: as §5

[14] = test system: breast cancer cell line T47D; assay: Cell cycle analysis by flow cytometry; format: cell-based; conditions: T47D cells, 20 μM, compared to control cells
Description: The effect of OODABL on cell cycle was analyzed by flow cytometery using breast cancer cell lin T47D.

[15] = test system: Bcl-2 (phosphorylation sites mutated); assay: Bcl-2 phosphorylation by Western blot in mutated BRK-4B-Bcl-2 cells; format: cell-based; conditions: mutated rat kidney cells, 12 hours
Description: as §6

[16] = test system: MCF-7 cells; assay: MTT cell viability assay, MCF-7; format: cell-based
Description: as §3, §4

[17] = test system: phosphomutant BRK-4B-Bcl-2 cells; assay: Clonogenic assay, phosphomutant BRK-4B-Bcl-2; format: cell-based, rat; conditions: 15 days, read-out: IC50 clonogenic assay (colonies counted)
Description: as §5

[18] = test system: NIH 3T3 (normal mouse fibroblasts) cells; assay: MTT cell viability assay, NIH 3T3; format: cell-based
Description: as §3

C=C1C(=O)OC2CC(C)=C(C(C)CCCOC(C)=O)C(O)C12 (stereo not drawn) [OABL, 1-O-acetylbritannilactone] was tested, and the “dose inducing PARP cleavage” value [1] was 10 µM and 20 µM, the “dose inducing Bcl-2 phosphorylation” value [2] was 10 µM and the “effective dose inducing Bcl-2 phosphorylation” value [3] was 10 µM and 20 µM. The IC50 [4] was about 2000 nM, the “dose inducing Bcl-2 phosphorylation” value [5] was 10 µM and the “dose inducing Bcl-2 phosphorylation” value [6] was 10 µM. The “cell viability (MTT), result in words” value ([7]; Du-145 cells, 4.68-100 μM) was “decreased cell viability”.
In the case of C=C1C(=O)OC2CC(C)=C(C(C)CCCOC(C)=O)C(OC(C)=O)C12 (stereo not drawn) [OODABL, 1,6-O,O-diacetylbritannilactone], the “late apoptosis (Br-dUTP incorporation)” value ([8]; 20 μM) is reported as “induce apoptosis”, the “dose inducing PARP cleavage” value [1] is reported as 5 µM and the “dose inducing Bcl-2 phosphorylation” value [2] is reported as 5 µM. The IC50 [9] was about 200 nM, the “level of Bcl-2 phosphorylation” value ([10]; non-mutated cells, 10, 20, 30, 40, or 60 μM) was “dose-dependent increase in Bcl-2 phosphorylation” and the “effective dose inducing Bcl-2 phosphorylation” value [3] was 2.5 µM and 5 µM. For the same compound, the IC50 [4] was under 7820 nM, the IC50 [11] was about 20000 nM and the “dose inducing Bcl-2 phosphorylation” value [5] was 5 µM. For the same compound, the effect on microtubules ([12]; 20 μM) was “polymerized microtubules”, the “dose inducing Bcl-2 phosphorylation” value [6] was 5 µM and the IC50 [13] was about 200 nM. The “effect on cell cycle” value [14] was “arrested cells at the G2/M phase”, the “level of Bcl-2 phosphorylation” value ([15]; 10-60 μM) was “no phosphorylation evident” and the IC50 ([7]; DU-145 cells) was under 15600 nM. It also gave an IC50 [16] of under 12500 nM, an IC50 [17] of about 2000 nM and an IC50 [18] of 50000 nM.
CC[C@@]1(O)C(=O)OCc2c1cc1n(c2=O)Cc2cc3ccccc3nc2-1 [camptothecin, reference compound] was tested, and the “late apoptosis (Br-dUTP incorporation)” value ([8]; 1 μM, positive control) was “induce apoptosis”.
For CC(=O)O[C@H]1C(=O)[C@@]2(C)[C@H]([C@H](OC(=O)c3ccccc3)[C@]3(O)C[C@H](OC(=O)[C@H](O)[C@@H](NC(=O)c4ccccc4)c4ccccc4)C(C)=C1C3(C)C)[C@]1(OC(C)=O)CO[C@@H]1C[C@@H]2O [paclitaxel, reference compound], the “level of Bcl-2 phosphorylation” value ([10]; non-mutated cells, 5 μM, positive control) was “increased in protein phosphorylation”, the “effective dose inducing Bcl-2 phosphorylation” value [3] was 100 µM and the effect on microtubules ([12]; 10 μM, positive control) was “polymerized microtubules”. For the same compound, the “level of Bcl-2 phosphorylation” value ([15]; 5 μM) was “no phosphorylation evident”.
